Source: patent publication US20080004695A1, “EVEROLIMUS/PIMECROLIMUS-ELUTING IMPLANTABLE MEDICAL DEVICES” (Abbott Cardiovascular Systems Inc., priority 2006, published 2008)

How the values were obtained:
[1] = 24 hour release of everolimus and pimecrolimus from dual-coated stent in porcine serum; assay type: physicochemical; settings: EVAL-based dual-coated 12 mm Vision stent
Procedure: Using the method set forth in Example 1, a 12 mm Vision™ stent was similarly coated with everolimus and pimecrolimus. The 24 hour release of everolimus and pimecrolimus in porcine serum was then measured using methods known in the art. […] For pimecrolimus, 12.4 μg of an expected 60.6 μg of pimecrolimus was released over 24 hours resulting in 20.5% release.

[2] = in vivo release from PVDF-HFP-based coated stent implanted in a pig; settings: PVDF-HFP matrix stent implanted in a pig, day 7
Procedure: A 12 mm Vision™ stent was cleaned in a bath of isopropyl alcohol and treated in a plasma cleaner to strip the top layer of molecules from the stent for better coat adhesion. The stent was then spray-coated with a primer solution consisting of 2% PBMA. The coated stent was dried in a convection oven at 80° C. for 0.5 hours.
The stent was then spray-coated with a drug reservoir solution consisting of PVDF-HFP, pimecrolimus and everolimus. A drug:polymer ratio of 1:3.5 of both pimecrolimus and everolimus to PVDF-HFP was used to coat the stent in order to obtain 64 μg of pimecrolimus and 64 μg of everolimus in the final coating. Spray coating parameters and the solvent were identical to those used for coating with the primer layer.
The stent was implanted in a pig and 1, 3 and 7 day release rates were obtained and compared with 24 hour release rates in porcine serum. […] By day 7, release of both drugs was 30%.

% release over 24 hours [1] [%] | amount released over 24 hours [1] [µg] | in vivo percent release [2] [%] | Compound
19.7 | 12.2 | 30 | CO[C@H]1C[C@@H]2CC[C@@H](C)[C@@](O)(O2)C(=O)C(=O)N2CCCC[C@H]2C(=O)O[C@H]([C@H](C)C[C@@H]2CC[C@@H](OCCO)[C@H](OC)C2)CC(=O)[C@H](C)/C=C(\C)[C@@H](O)[C@@H](OC)C(=O)[C@H](C)C[C@H](C)/C=C/C=C/C=C/1C [everolimus]
20.5 | 12.4 | 30 | CC[C@@H]1/C=C(\C)C[C@H](C)C[C@H](OC)[C@H]2O[C@@](O)(C(=O)C(=O)N3CCCC[C@H]3C(=O)O[C@H](/C(C)=C/[C@@H]3CC[C@H](Cl)[C@H](OC)C3)[C@H](C)[C@@H](O)CC1=O)[C@H](C)C[C@@H]2OC [pimecrolimus]
